Residues, ends and D or L forms follow the SMILES beside them. *: point of attachment. Cbz = O=C(OCc1ccccc1)*
Test system: DISC1, neural progenitors derived from control subjects
Assay: DISC1 protein level in control iPS-derived neural progenitors, western blot
Assay type: cell-based, human
Conditions: MG132 10 µM, day 18, up to 3 hours, n=2, western blot
Description: All iPS derived neural progenitors were provided by Pfizer Neuroscience (Cambridge, MA, USA). The iPS cell lines D2 and D3 and family control cell line C1 were generated using a non-integrated approach by Dr Hongjun Song at Johns Hopkins University and cultured as described previously.[8] The Detroit iPS cell line was generated by Dr S. Engle at Pfizer Neuroscience. Detroit 551 fibroblasts were obtained from ATCC (CCL-110) and maintained in Knockout DMEM (Life Technologies 10829-018), 15% FBS (Life Technologies), 1x Non-essential amino acids (Life Technologies 11140-050), 2 mM L-glutamine (Life Technologies 25030-081), 1x Gentamicin (Life Technologies 15710-072), 0.1 mM β-mercaptoethanol (Sigma M-7522). The cells were reprogrammed with individual lentiviruses expressing c-MYC, KLF4, SOX2, OCT3/4, NANOG, and LIN28. One colony, Detroit 551-3, with ES-like morphology, high expression of pluripotency markers (for example, OCT3/4, TRA-1-60, TRA-1-81, SSEA4), a normal karyotype, […] the ability to form all three germ layers in a teratoma assay was used in all subsequent experiments. […]

## CC(C)C[C@@H](C=O)NC(=O)[C@H](CC(C)C)NC(=O)[C@H](CC(C)C)NC(=O)OCc1ccccc1 [MG132] (Cbz-Leu-Leu-Leu-aldehyde)
  DISC1 protein level in NPs from Detroit (control) iPS cells, proteasomal inhibition: stabilization of DISC1 protein levels within first 30 min up to 3 hours

— PMC5984089, “FBXW7 regulates DISC1 stability via the ubiquitin-proteosome system” (Molecular Psychiatry, 2017)
